Data reported in patent US9447062B2, “Manumycin-type metabolite called Colabomycin E which inhibits caspase 1 and creation of interleukins, strain produces the Colabomycin E and a method of a production of the Colabomycin E” (BIOLOGY CENTRE AS CR, v. v. i., priority 2014, dated 2016).

How the values were obtained:
[1] = system: IL-1β release from THP-1 cells (caspase 1); assay: IL-1β release from TNFα-stimulated THP-1 cells; type: cell-based, human; settings: for concentration at which the dose curve reached an inhibitory plateau (IL-1β release) / concentration from which IL-1β release is significantly inhibited: TNFα 50 ng/ml
Description: (§1) Antibacterial activity of colabomycin E was tested by disc diffusion method. The strains were cultivated on MH agar plates at 36° C., aerobically for 18 hrs. For streptococci the media was supplemented with 5% sheep blood and the bacteria were cultivated aerobically for 20 hrs in 5% CO2. Colabomycin E samples dissolved in dioxane were applied to standard 6 mm discs; therefore zone diameters below 7 mm indicate no growth inhibition. The anti-inflammatory effect of colabomycin E was assayed on the TNFα-stimulated human monocyte/macrophage cell line THP-1. The cells were cultured in RPMI-1640 medium, supplemented with 10% heat inactivated fetal calf serum (FCS), L-glutamine, penicillin and streptomycin. Cells were seeded into 6-well tissue culture plates at a density of 2×10^6 cells per 2 ml per well and cultured under a 5% CO2 atmosphere at 37° C. THP-1 cells were stimulated with TNFα (50 ng/ml) under serum free conditions in the presence of colabomycin or manumycin A.
Unstimulated cells were used as controls. IL-1β release was measured through flow cytometry in culture supernatants by Fluorokine MAP human base kit A using the Luminex^100 System. In the first step, 50 μl of the samples/standards were incubated with 50 μl of microparticles for 3 hours at RT on a horizontal orbital microplate shaker. After washing the unbound substances, 50 μl of the secondary antibodies conjugated with biotin was added to each well and incubated the samples/standards for another 1 hour. After the incubation, the unbound secondary antibodies were washed and 50 μl of the Streptavidin-PE was added. After the 30 minutes of incubation, the samples/standards were washed and resuspended the microparticles in 100 μl of wash buffer. Samples/standards were read using a Luminex analyzer.

Gram^− = assay: Antibacterial activity, disc diffusion method; type: cell-based
Description: (§2) FIG. 10: Antibacterial features of colabomycin E—disc diffusion method. Colabomycin E samples were applied to standard 6 mm discs; therefore the zone diameters bellow 7 mm mean no growth inhibition. The strains kindly provided by the Czech National Collection of Type Cultures.
as §1

[2] = system: Gram^+ bacteria, mainly staphylococci and streptococci; assay: Antibacterial activity, disc diffusion method; type: cell-based
Description: as §2, §1

[3] = system: human leukemic Jurkat cells; assay: Pro-apoptotic features, Annexin V-FITC flow cytometry; type: cell-based; settings: 4 hours
Description: Proapoptotic features were assayed using human Jurkat cells. The cells were cultivated in RPMI medium supplemented with 10% FBS and antibiotics. Just before experiments cells were plated into the fresh medium at 4×10^5 cells/ml in 24-well cultivation plates. They were treated with increasing concentrations of manumycin A (positive control) and colabomycin E for 4 hours. Cells were then harvested by centrifugation and apoptotic cells were labeled by Annexin V-FITC. The stained cells were subsequently analyzed by flow cytometry analysis in a Guava EasyCyte flow cytometer and the obtained data were evaluated using FlowJo software.)

[4] = system: IL-6 production in THP-1 cells; assay: IL-6 production in THP-1 cells stimulated with TNFα; type: cell-based, human; settings: 0.5 μM
Description: as §1

[5] = system: IL-18 production in THP-1 cells; assay: IL-18 production in THP-1 cells stimulated with TNFα; type: cell-based, human; settings: 0.5 μM
Description: as §1

[6] = system: IL-8 production in THP-1 cells; assay: IL-8 production in THP-1 cells stimulated with TNFα; type: cell-based, human; settings: 0.5 μM
Description: as §1

Row | Compound | concentration at which the dose curve reached an inhibitory plateau (IL-1β release) [1] | concentration from which IL-1β release is significantly inhibited [1] | effect on Gram− bacteria (Gram^−) | anti-bacterial effects (overall) [2] | growth of Gram+ bacteria ([2]; in higher concentrations) | pro-apoptotic features ([3]; 5 μM) | pro-apoptotic effect relative to manumycin A [3] | IL-1β release from THP-1 cells [1] | IL-6 production [4] | IL-18 production [5] | IL-8 production [6]
1 | CCCC[C@@H](C)/C=C(C)/C=C(\C)C(=O)NC1=C[C@@](O)(/C=C/C=C/C=C/C(=O)NC2=C(O)CCC2=O)[C@@H]2O[C@@H]2C1=O [manumycin A, reference compound] | 0.5 µM | 0.25 µM | – | – | – | – | – | – | – | – | –
2 | Colabomycin E | 0.5 µM | 0.25 µM | no effect | quite mild | suppresses growth | weak pro-apoptotic features | substantially weaker | significantly inhibited | inhibit | inhibit | inhibit
